The values that follow are results of earlier work, collected in patent publication USRE46284E1, “Method of administrating an anticancer drug containing α, α, α-trifluorothymidine and thymidine phosphorylase inhibitor” (TAIHO PHARMACEUTICAL CO., LTD., priority 2005, dated 2017).

For this data set the following is noted: human, intravenous administration.

Take `O=c1[nH]c(=O)n([C@H]2C[C@H](O)[C@@H](CO)O2)cc1C(F)(F)F` [FTD, α,α,α-trifluorothymidine]: the “half-life in the blood” value was “approximately 12 minutes”.
